Key:
TrkB [1] = experiment: TrkB phosphorylation in hippocampal neurons (immunofluorescent staining, immunoblotting); assay type: cell-based; settings: hippocampal neurons
Method: Unless specifically described, primary hippocampal neurons are seeded on poly-L lysine coated coverslips in a 12-well plate. After 7 days in vitro, the neurons are treated with 100 ng/ml BDNF or variety of flavone compounds (1 μM) for 30 minutes, and then are washed with PBS. Cells are fixed with 3% formaldehyde in PBS at room temperature for 10 minutes. The cells then are permeabilized and blocked by 0.4% Triton X-100 and 2% FBS in PBS at room temperature for 15 minutes, are washed with PBS three times, and are treated with anti-MAP2 (1:200) and anti-phospho-TrkB antibodies (1:500). After staining with FITC- or Rhodamine-conjugated secondary antibody, the coverslips are mounted on slides. Fluorescent images are taken by a fluorescence microscope.
BDNF binding to TrkB induces its autophosphorylation and, subsequently, activation of downstream kinase pathways including MAPK and PI3/Akt. […] To examine whether an identified active compound stimulates TrkB-mediated downstream signaling cascades, Western analysis is performed and the activation of Akt and Erk also is monitored. […] To probe the time course of TrkB activation triggered by an identified active compound, hippocampal neurons are treated with an identified active compound at 500 nM and phosphorylation of Erk and Akt is determined over time by Western analysis. […]

TrkA or TrkB = experiment: RT-PCR analysis of Trk receptors in mouse brain; assay type: in vivo; settings: mouse brain upon deoxygedunin treatment
C57BL/6 mice = experiment: KA-induced apoptosis in hippocampus (TUNEL staining); assay type: in vivo, mouse; settings: 5 mg/kg i.p. followed by 20 mg/kg KA, 5 days
TrkB [2] = biological target: T1, TrkB (Mus musculus, UniProt P15209); experiment: TrkB activation in mouse brain after i.p. or oral administration; assay type: in vivo
T1 construct: Brain lysates were prepared and analyzed by immunoblotting; from tissue; host or cells: mouse brain
T1 sequence (P15209 32-821): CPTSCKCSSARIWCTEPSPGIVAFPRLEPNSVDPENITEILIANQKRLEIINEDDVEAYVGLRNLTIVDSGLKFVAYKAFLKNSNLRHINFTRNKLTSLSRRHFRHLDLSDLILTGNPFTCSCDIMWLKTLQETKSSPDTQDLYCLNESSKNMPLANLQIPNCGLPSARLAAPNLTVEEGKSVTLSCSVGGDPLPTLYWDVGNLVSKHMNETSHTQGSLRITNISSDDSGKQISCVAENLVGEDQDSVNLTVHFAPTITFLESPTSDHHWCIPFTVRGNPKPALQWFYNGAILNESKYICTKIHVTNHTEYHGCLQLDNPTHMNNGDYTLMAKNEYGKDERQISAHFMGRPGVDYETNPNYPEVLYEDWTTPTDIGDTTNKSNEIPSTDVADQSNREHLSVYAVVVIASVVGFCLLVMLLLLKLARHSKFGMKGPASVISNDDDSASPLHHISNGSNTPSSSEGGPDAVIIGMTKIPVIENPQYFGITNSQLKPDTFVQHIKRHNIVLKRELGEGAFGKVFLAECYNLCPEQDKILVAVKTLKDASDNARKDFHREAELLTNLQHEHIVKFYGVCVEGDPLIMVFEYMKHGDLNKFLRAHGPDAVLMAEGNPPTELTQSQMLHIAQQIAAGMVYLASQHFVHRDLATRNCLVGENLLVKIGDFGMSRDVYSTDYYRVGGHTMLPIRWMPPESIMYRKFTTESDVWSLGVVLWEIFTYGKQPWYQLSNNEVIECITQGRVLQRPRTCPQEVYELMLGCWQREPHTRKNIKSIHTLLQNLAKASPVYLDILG
Method: Unless specifically described, brain tissues are fixed in 4% paraformaldehyde overnight followed by paraffin embedding. Sections of 5 μm are cut. For immunohistochemical staining, brain sections are deparaffinized in xylene and rehydrated in graded alcohols. Endogenous peroxidase activity are blocked by 3% hydrogen peroxide for 5 minutes and all slides are boiled in 10 mM sodium citrate buffer (pH 6.0) for 10 minutes. Phosphorylated Trk A, Trk A, phosphorylated Trk B, and Trk B are detected using specific antibodies and, e.g., a Zymed HistostainPlus AEC kit (Invitrogen; Carlsbad, Calif.). Slides then are counterstained with hematoxylin.
To assess whether an identified active compound provokes TrkB activation in the brain, mice are intraperitoneally injected with a dose of 5 mg/kg and analyzed at various time points. […] Further, whether the protein and mRNA levels of the neurotrophic receptors is altered after treatment with an identified active compound is measured.
Both Akt and Erk1/2 were robustly activated by these molecules as well). […] The minimal required drug concentration was about 100-250 nM (see FIG. 7, right panels). […] To assess whether deoxygedunin provokes TrkB activation in the brain, mice (i.p.) were injected with a dose of 5 mg/kg for various time points. […] To establish that deoxygedunin is orally bioactive in provoking TrkB activation, two to three month old C57BL/6J mice were orally injected with various doses of 7,8-dihydroxyflavone or deoxygedunin then sacrificed 2 to 4 hours after administration. Brain lysates were prepared and analyzed by immunoblotting (see FIG. 10).

CC(=O)O[C@@H]1C[C@H]2C(C)(C)C(=O)C=C[C@]2(C)[C@H]2CC[C@]3(C)C(=CC(=O)O[C@H]3c3ccoc3)[C@@]21C [deoxygedunin]
TrkB phosphorylation (TrkB [1]): strong TrkB phosphorylation
change of TrkA or TrkB (RT-PCR) (TrkA or TrkB): no change of TrkA or TrkB
KA provoked apoptosis in the hippocampus (TUNEL staining) (C57BL/6 mice): diminished
decrease of KA induced apoptosis in hippocampus (C57BL/6 mice): 60%
time after injection at which TrkB was phosphorylated in the brain (TrkB [2]; mice, 5 mg/kg i.p.): 2 h
time of peak TrkB phosphorylation in the brain (TrkB [2]; mice, 5 mg/kg i.p.): 4 to 8 h
blood-brain barrier penetration (TrkB [2]; mice, 5 mg/kg i.p., inferred from brain TrkB phosphorylation): penetrated the blood-brain barrier
TrkB activation in hippocampus (immunohistochemistry staining) (TrkB [2]; mouse hippocampus upon treatment): robust TrkB activation in hippocampus

— patent US8609870B2, “Treating various disorders using TrkB agonists” (Emory University, priority 2008, dated 2013)
